Structures are written as SMILES.

In ChEMBL document CHEMBL4418282, “Compounds and methods for inhibiting fascin” (2017) one finds inhibition and inhibition in vivo data, which are given here for 21 molecules.

One experiment addresses Fascin (Homo sapiens) (UniProt Q16658). In words: Inhibition of purified fascin (unknown origin) assessed as reduction in bundle activity at 50 uM pre-incubated for 30 mins before polymerized actin addition and followed by Alexa fluro 488 phalloidin addition after 30 mins and measured after 1 hr under dark condition relative to control.
Conditions: not given
With `Cc1occc1-c1nn(Cc2ccc(C(F)(F)F)cc2)c2ccccc12`, the inhibition (in general, the drop in the measured response relative to a control, in per cent) was below 10%.
Still for that read-out and setting: to `CNc1nn(Cc2ccc(C(F)(F)F)cc2)c2cncc(Cl)c12` belongs below 10%; to `CC(=O)Nc1nn(Cc2ccc(C(F)(F)F)cc2)c2cncc(Cl)c12`, below 10%.
The same measure, in the same setting: to `FC(F)(F)c1ccc(Cn2nc(-c3cccc4ccccc34)c3ccccc32)cc1` belongs below 10%; to `Cc1ncsc1C(=O)Nc1nn(Cc2ccc(C#N)cc2)c2ccccc12`, below 10%; to `Cc1nocc1C(=O)Nc1nn(Cc2ccc(C(F)(F)F)cc2)c2cncc(Cl)c12`, below 10%.
Same read-out and setting: the same measure for `FC(F)(F)c1ccc(Cn2nc(Br)c3ccccc32)cc1`: below 10%; for `Cc1occc1C(=O)Nc1nn(Cc2ccc(C(F)(F)F)cc2)c2cncc(Cl)c12`: below 10%; for `FC(F)(F)c1ccc(Cn2nc(-c3ccccc3)c3ccccc32)cc1`: below 10%.
With `FC(F)(F)c1ccc(Cn2nc(-c3ccoc3)c3ccccc32)cc1`, the inhibition is below 10%.
Still for that read-out and setting: the same measure for `O=C(Nc1nn(Cc2ccc(C(F)(F)F)cc2)c2ccccc12)c1cccc(Cl)c1`: below 10%; for `O=[N+]([O-])c1cn(Cc2ccccc2)c2ccc(Br)cc12`: below 10%.
As to `N#Cc1ccccc1C(=O)Cc1nn(Cc2ccc(C(F)(F)F)cc2)c2ccccc12`, the inhibition was below 10%.
Turning to `Cc1ccc(-c2ccc(C(=O)Nc3nn(Cc4ccc(C(F)(F)F)cc4)c4ccccc34)o2)cc1`, the inhibition was below 10%.
In the case of `CCCC(=O)Nc1nn(Cc2ccc(C(F)(F)F)cc2)c2cncc(Cl)c12`, the inhibition was below 10%.
Same read-out and setting: the same measure for `O=C(Nc1nn(Cc2ccc(C(F)(F)F)cc2)c2cncc(Cl)c12)c1ccoc1`: below 10%.
As for `O=[N+]([O-])c1cn(Cc2ccc(C(F)(F)F)cc2)c2ccc(Br)cc12`, the inhibition is below 10%.
Take `O=C(Nc1nn(Cc2ccc(C(F)(F)F)cc2)c2ccccc12)c1ccc(Cl)cc1`: the inhibition was below 10%.
Still for that read-out and setting: the same measure for `Cc1ccc(-c2nn(Cc3ccc(C(F)(F)F)cc3)c3ccccc23)o1`: below 10%.

For a further experiment, the system named is 4T1. In words: Antitumor activity against mouse 4T1 cells implanted in Balb/c mouse assessed as reduction in tumor growth in lungs at 100 mg/kg, administered daily for 2 weeks starting 7 days after tumor implantation and measured on day 28 by methylene blue staining based assay relative to control. Conditions: read-out: TGI. The class given is functional.
Regarding `Cc1occc1C(=O)Nc1nn(Cc2ccc(C(F)(F)F)cc2)c2ccccc12` [NP-G2-044], the inhibition in vivo at 100 mg/kg is above 90%.
For `Cc1ncsc1C(=O)Nc1nn(Cc2ccc(C(F)(F)F)cc2)c2ccccc12`, the inhibition in vivo at 100 mg/kg is above 90%.
